Where “and” joins values, the source holds several entries; their conditions need not be identical. Equal entries are not always repeated.
Experiments:
[1] = Wang Z. Y. 2001; cited from earlier work
[2] = tested on: breast cancer patients with superficial fungating or skin-infiltrating tumors; test: Assessment of response: topical As2O3 gel plus electron beam radiotherapy; assay type: in vivo, human; design: key to Tumor response: Complete: A complete response was defined as the disappearance of all known skin lesions within radiation fields confirmed by subsequent observation at least 4 weeks apart; Partial: a decrease in the sum of the maximal perpendicular diameters for involved skin area within radiation fields by more than 50%; Progressive: at least 25% increase in the sum of the maximal perpendicular diameters for involved skin area or the appearance of new lesions within radiation fields; Stable: All other tumor outcomes were classified as stable disease; conditions: for Reduction in VAS for skin pain: 100-mm scale
Text: (§1) Between December 2001 and March 2003, seven patients of breast cancer with superficial fungating or skin-infiltrating tumors who had undergone standard treatments received topical As2O3 and radiotherapy at Mackay Memorial Hospital (Table 3). Eligibility criteria for the study included diagnosis of breast cancer confirmed by pathological examination. In addition, patients had to have relapsed after standard treatments such as surgery, radiation therapy or chemotherapy. Six patients had received post-operative radiation to the chest wall and axillary area. Written informed consent was required, and the study protocol was viewed and approved by the institutional review board of the Mackay Memorial Hospital.
(§2) As2O3 gel prepared by Example 2 was administered in daily topical doses that ranged from 0.01 to 0.5 mg/cm2/day, preferred from 0.05-0.15 mg/cm2/day. The gel was administered 1 h prior to the daily radiation treatment and was subsequently removed 5 min prior to the radiation exposure. Electron beam radiotherapy was delivered using a linear accelerator (9-12 MeV, dose rate 2.4 Gy/min; Clinac 1800; Varian Associates, Palo Alto, Calif.). Radiation was administered 5 days a week (total dose: 50 Gy in 25 fractions or 30 Gy in 10 fractions).
Observation for tumor response and skin reaction was conducted daily, with photographs taken weekly. A complete response was defined as the disappearance of all known skin lesions within radiation fields confirmed by subsequent observation at least 4 weeks apart. A partial response was defined as a decrease in the sum of the maximal perpendicular diameters for involved skin area within radiation fields by more than 50% which was confirmed by subsequent observation at least 4 weeks apart. Progressive disease was defined as at least 25% increase in the sum of the maximal perpendicular diameters for involved skin area or the appearance of new lesions within radiation fields. All other tumor outcomes were classified as stable disease. For efficacy of pain control, chest wall pain was estimated using a visual analog scale (VAS) as a subjective assessment. The VAS scores before treatment were set as the baseline for every patient, and we compared the changes between subsequent data after treatment and the baseline data. When differences were greater than 50 mm in a 100-mm scale, we identified this patient as a responder. The daily need for changing dressings (CD) of wounds was also recorded by nurses in charge of each patient.

[3] = tested on: breast cancer patients with superficial fungating or skin-infiltrating tumors; test: Monitoring for adverse effects (CTC version 2.0) during combined topical As2O3 and radiation treatment; assay type: in vivo, human; conditions: for Acute radiation dermatitis, case number / Anorexia, case number / Chronic radiation dermatitis, case number / Fatigue, case number / Granulocytosis, case number / Hyperpigmentation, case number / Leukopenia, case number / Nausea, case number / Thrombocytopenia, case number / Vomit, case number: of 7 patients, topical As2O3 + radiation
Text: as §1, §2
With regard to drug absorption via skin, possible systemic adverse effects were evaluated. Serial blood counts and serum chemistry profiles were performed. Serum chemistry profiles, including alanine aminotransferase, aspartate aminotransferase, blood urine nitrogen and creatinine, were measured using a Synchron LX20 spectrophotometer (Beckman Coulter, San Diego, Calif.). An electrocardiogram was recorded before and after irradiation for each patient. Adverse effect and toxicity were evaluated according to the Common Toxicity Criteria (CTC) version 2.0 published by the DCTD, NCI, NIH and DHHS in 1999.

[4] = tested on: cutaneous metastatic breast cancer; conditions: topical As2O3 alone; Cheng 2003; cited from earlier work
[5] = tested on: human cervical cancer cells; conditions: As2O3 pre-treatment in combination with ionizing radiation; Chun 2002; cited from earlier work
[6] = tested on: human cervical tumor xenografts; conditions: As2O3 pre-treatment in combination with ionizing radiation; Chun 2002; cited from earlier work
[7] = combination of topical As2O3 and radiation, pilot study, seven patients
[8] = patient 1, skin infiltration, topical As2O3 gel + radiation 50 Gy
[9] = patient 2, skin infiltration, topical As2O3 gel + radiation 50 Gy
[10] = patient 3, skin infiltration, topical As2O3 gel + radiation 50 Gy
[11] = patient 4, fungating tumor, topical As2O3 gel + radiation 50 Gy
[12] = patient 5, fungating tumor, topical As2O3 gel + radiation 50 Gy
[13] = patient 6, fungating tumor, topical As2O3 gel + radiation 30 Gy
[14] = patient 7, fungating tumor, topical As2O3 gel + radiation 50 Gy

S1[As]2S[As]3S[As]2S[As]13 [As4S4, tetraarsenic tetraslfide]
Complete remission rate [1]: 84.9%

arsenic trioxide [As2O3]
Change in mean daily needed CD frequency ([2]; after treatment for 1 month, all superficial and fungating wounds): 4.4 to 0.9 | Number of patients resistant, classified as stable disease ([2]; chest wall fungating tumor, of seven patients, combined therapy): One | Number of patients with partial remission ([2]; chest wall fungating tumors, of seven patients, combined therapy): three | Number of patients with complete remission ([2]; chest wall skin-infiltrating lesions, of seven patients, combined therapy): three | Clinical response rate, complete remission [2, 7]: 42.9% | Clinical response rate, partial remission [2, 7]: 42.9% | Number of patients with relief of chest wall pain assessed by VAS ([2]; of seven patients, combined therapy): seven | Tumor response [2, 8]: Complete | Reduction in VAS for skin pain [2, 8]: 75 mm | Tumor response [2, 9]: Complete | Reduction in VAS for skin pain [2, 9]: 65 mm | Tumor response [2, 10]: Complete | Reduction in VAS for skin pain [2, 10]: 80 mm | Tumor response [2, 11]: Partial (a decrease in the sum of the maximal perpendicular diameters for involved skin area within radiation fields by more than 50%) | Reduction in VAS for skin pain [2, 11]: 70 mm | Tumor response [2, 12]: Partial (a decrease in the sum of the maximal perpendicular diameters for involved skin area within radiation fields by more than 50%) | Reduction in VAS for skin pain [2, 12]: 65 mm | Tumor response [2, 13]: Partial (a decrease in the sum of the maximal perpendicular diameters for involved skin area within radiation fields by more than 50%) | Reduction in VAS for skin pain [2, 13]: 75 mm | Tumor response [2, 14]: Stable | Reduction in VAS for skin pain [2, 14]: 55 mm | Cumulative radiation dosage for remission of chest wall skin lesions ([2]; the three patients with complete remission, respectively): 20 Gy and 22 Gy and 28 Gy | Acute radiation dermatitis, case number ([3]; CTC grade 0): 1 | Anorexia, case number ([3]; CTC grade 0): 4 | Chronic radiation dermatitis, case number ([3]; CTC grade 0): 4 | Fatigue, case number ([3]; CTC grade 0): 3 | Granulocytosis, case number ([3]; CTC grade 0): 6 | Hyperpigmentation, case number ([3]; CTC grade 0): 7 | Leukopenia, case number ([3]; CTC grade 0): 7 | Nausea, case number ([3]; CTC grade 0): 4 | Thrombocytopenia, case number ([3]; CTC grade 0): 7 | Vomit, case number ([3]; CTC grade 0): 6 | Acute radiation dermatitis, case number ([3]; CTC grade 1): 1 | Anorexia, case number ([3]; CTC grade 1): 2 | Chronic radiation dermatitis, case number ([3]; CTC grade 1): 2 | Fatigue, case number ([3]; CTC grade 1): 2 | Granulocytosis, case number ([3]; CTC grade 1): 1 | Hyperpigmentation, case number ([3]; CTC grade 1): 0 | Leukopenia, case number ([3]; CTC grade 1): 0 | Nausea, case number ([3]; CTC grade 1): 2 | Thrombocytopenia, case number ([3]; CTC grade 1): 0 | Vomit, case number ([3]; CTC grade 1): 1 | Acute radiation dermatitis, case number ([3]; CTC grade 2): 3 | Anorexia, case number ([3]; CTC grade 2): 1 | Chronic radiation dermatitis, case number ([3]; CTC grade 2): 1 | Fatigue, case number ([3]; CTC grade 2): 2 | Granulocytosis, case number ([3]; CTC grade 2): 0 | Hyperpigmentation, case number ([3]; CTC grade 2): 0 | Leukopenia, case number ([3]; CTC grade 2): 0 | Nausea, case number ([3]; CTC grade 2): 1 | Thrombocytopenia, case number ([3]; CTC grade 2): 0 | Vomit, case number ([3]; CTC grade 2): 0 | Acute radiation dermatitis, case number ([3]; CTC grade 3): 2 | Anorexia, case number ([3]; CTC grade 3): 0 | Chronic radiation dermatitis, case number ([3]; CTC grade 3): 0 | Fatigue, case number ([3]; CTC grade 3): 0 | Granulocytosis, case number ([3]; CTC grade 3): 0 | Leukopenia, case number ([3]; CTC grade 3): 0 | Nausea, case number ([3]; CTC grade 3): 0 | Thrombocytopenia, case number ([3]; CTC grade 3): 0 | Vomit, case number ([3]; CTC grade 3): 0 | Acute radiation dermatitis, case number ([3]; CTC grade 4): 0 | Anorexia, case number ([3]; CTC grade 4): 0 | Chronic radiation dermatitis, case number ([3]; CTC grade 4): 0 | Fatigue, case number ([3]; CTC grade 4): 0 | Granulocytosis, case number ([3]; CTC grade 4): 0 | Leukopenia, case number ([3]; CTC grade 4): 0 | Thrombocytopenia, case number ([3]; CTC grade 4): 0 | Vomit, case number ([3]; CTC grade 4): 0 | Time to satisfactory healing of grade 3 acute radiation dermatitis ([3]; after completion of the radiation treatment): 2-3 weeks | Hematological changes ([3]; combined treatment): no significant hematological changes were observed | Number of patients with grade 3 acute radiation dermatitis (most severe observed) ([3]; combined treatment): two | Other adverse reactions ([3]; combined treatment): light-headedness during irradiation and moderate fatigue after radiation | Patients developing grade 3 chronic radiation dermatitis ([3]; combined treatment): none | Performance status ([3]; combined treatment): no changes in performance status were evident | Dermatological toxicity such as skin rash ([3]; daily application less than 1 h, treatment not more than 5 weeks): we did not note any toxicity of this type | Grade 2-4 granulocytosis or leukopenia ([3]; during the combined therapy): No grade 2-4 granulocytosis or leukopenia was noted | Skin pigmentation, renal or hepatic function ([3]; during the course of the combined treatment): no skin pigmentation or significant changes in renal or hepatic function | Local tumor control and wound secretion [4]: improved local tumor control and decreased wound secretion | Systemic absorption, pharmacokinetic study [4]: no significant systemic absorption | Systemic or local adverse effects [4]: without significant systemic or local adverse effects | Effect on decreased clonogenic survival [5]: synergistic effect | Effect on regression of established xenografts [6]: synergistic effect
